Patent US20220251163A1 (Sinopep-Allsino Biopharmaceutical Co., Ltd., priority 2019, published 2022)

Tests used:
[1] = Effect on random weight of ob/ob mice after single subcutaneous injection; type: in vivo; conditions: 100 μg/kg single s.c., X ± s, n = 7
Method: The mice in each group received random blood glucose value measurement before (0 h) administration and 2, 4, 6, 10 and 24 h after administration, and then the time for measuring the random blood glucose was adjusted and prolonged to 34, 48, 58 or 72 h after administration according to the blood glucose condition of the mice in each group. Meanwhile, the random weight of the mice in each group before (0 h) administration and 24 h after administration was weighed, and then the random weight of the mice corresponding to the random blood glucose measurement condition 48 or 72 h after administration was weighed.

ob/ob mice = assay: Blood glucose reducing experiment, single subcutaneous injection in ob/ob mice; type: in vivo; conditions: 100 μg/kg single s.c.; for Blood glucose at different time after administration, 0 h: 0 h (before administration); for Blood glucose at different time after administration, 0 h / Blood glucose at different time after administration, 2 h / Blood glucose at different time after administration, 4 h / Blood glucose at different time after administration, 6 h / Blood glucose at different time after administration, 10 h / Blood glucose at different time after administration, 24 h / AUC0-24 h Glu / Blood glucose at different time after administration, 34 h: X ± s, n = 7; for AUC0-24 h Glu: blood glucose curve area within 24 h; for AUC0-24 h Glu Decrease rate: versus model control group;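 for all read-outs here: random blood glucose read at each time point, decrease rate given as percentage fall versus the model control group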
Method: The mice in each group received random blood glucose value measurement before (0 h) administration and 2, 4, 6, 10 and 24 h after administration, and then the time for measuring the random blood glucose was adjusted and prolonged to 34, 48, 58 or 72 h after administration according to the blood glucose condition of the mice in each group. Meanwhile, the random weight of the mice in each group before (0 h) administration and 24 h after administration was weighed, and then the random weight of the mice corresponding to the random blood glucose measurement condition 48 or 72 h after administration was weighed. The blood glucose decrease rate, the blood glucose curve area (AUC0-24 h Glu) within 24 h after administration and the decrease rate were calculated according to the following formula.
Blood glucose decrease rate=(blood glucose in the model control group−blood glucose in the administration group)/blood glucose in the model control group×100%
BG0, BG2, BG4, BG6, BG10 and BG24 represented the blood glucose values before administration (0 h) and 2, 4, 6, 10 and 24 h after administration respectively.
AUC0-24 h Glu(mmol/Lh·r) decrease rate=(model control group AUC0-24 h Glu−administration group AUC0-24 h Glu/model control group AUC0-24 h Glu×100%
Experiments were carried out twice, at an interval of 8-10 days.

Compound | Changes of random body weight at different time after administration, 0 h [1] | Random body weight at different time after administration, 0 h [1] | Changes of random body weight at different time after administration, 24 h [1] | Random body weight at different time after administration, 24 h [1] | Blood glucose at different time after administration, 0 h (ob/ob mice) | Decrease rate of blood glucose at different time after administration, 2 h (ob/ob mice) | Blood glucose at different time after administration, 2 h (ob/ob mice) | Decrease rate of blood glucose at different time after administration, 4 h (ob/ob mice) | Blood glucose at different time after administration, 4 h (ob/ob mice) | Decrease rate of blood glucose at different time after administration, 6 h (ob/ob mice) | Blood glucose at different time after administration, 6 h (ob/ob mice) | Decrease rate of blood glucose at different time after administration, 10 h (ob/ob mice) | Blood glucose at different time after administration, 10 h (ob/ob mice) | Decrease rate of blood glucose at different time after administration, 24 h (ob/ob mice) | Blood glucose at different time after administration, 24 h (ob/ob mice) | AUC0-24 h Glu (ob/ob mice) | AUC0-24 h Glu Decrease rate (ob/ob mice) | Changes of random body weight at different time after administration, 48 h [1] | Random body weight at different time after administration, 48 h [1] | Decrease rate of blood glucose at different time after administration, 34 h (ob/ob mice) | also measured
CC[C@H](C)[C@H](NC(=O)[C@H](Cc1ccccc1)NC(=O)[C@H](CCC(=O)O)NC(=O)[C@H](CCCCN)NC(=O)[C@H](C)NC(=O)[C@H](C)NC(=O)[C@H](CCC(N)=O)NC(=O)CNC(=O)[C@H](CCC(=O)O)NC(=O)[C@H](CC(C)C)NC(=O)[C@H](Cc1ccc(O)cc1)NC(=O)[C@H](CO)NC(=O)[C@H](CO)NC(=O)[C@@H](NC(=O)[C@H](CC(=O)O)NC(=O)[C@H](CO)NC(=O)[C@@H](NC(=O)[C@H](Cc1ccccc1)NC(=O)[C@@H](NC(=O)CNC(=O)[C@H](CCC(=O)O)NC(=O)[C@H](C)NC(=O)[C@@H](N)Cc1c[nH]cn1)[C@@H](C)O)[C@@H](C)O)C(C)C)C(=O)N[C@@H](C)C(=O)N[C@@H](Cc1c[nH]c2ccccc12)C(=O)N[C@@H](CC(C)C)C(=O)N[C@H](C(=O)N[C@@H](CCCCN)C(=O)NCC(=O)N[C@@H](CCCNC(=N)N)C(N)=O)C(C)C [GLP-1, glucagon-like peptide-1, reference compound] | 0.0 ± 0.0 g | 43.2 ± 0.7 g | -0.1 ± 0.1 g | 43.1 ± 0.7 g | 20.30 ± 1.05 mmol/L | 40.6% | 12.06 ± 1.36 mmol/L | 41.9% | 11.79 ± 0.84 mmol/L | 35.9% | 13.02 ± 0.86 mmol/L | 30.9% | 14.03 ± 2.41 mmol/L | 11.1% | 18.04 ± 0.71 mmol/L | 359.61 ± 18.59 mmol·h/L | 29.6% |  |  |  | 
CC[C@H](C)[C@H](NC(=O)[C@H](CC(C)C)NC(=O)[C@H](Cc1c[nH]c2ccccc12)NC(=O)[C@H](CCC(N)=O)NC(=O)[C@@H](NC(=O)[C@H](Cc1ccccc1)NC(=O)[C@H](C)NC(=O)[C@H](CCCCNC(=O)COCCOCCNC(=O)COCCOCCNC(=O)CC[C@H](NC(=O)CCCCCCCCCCCCCCCCC(=O)O)C(=O)O)NC(=O)[C@H](CCC(N)=O)NC(=O)[C@H](C)NC(=O)[C@@H](NC(=O)[C@H](CCCCN)NC(=O)[C@H](CC(=O)O)NC(=O)[C@H](CC(C)C)NC(=O)C1(NC(=O)[C@@H](NC(=O)[C@H](CO)NC(=O)[C@H](Cc2ccc(O)cc2)NC(=O)[C@H](CC(=O)O)NC(=O)[C@H](CO)NC(=O)[C@@H](NC(=O)[C@H](Cc2ccccc2)NC(=O)[C@@H](NC(=O)CNC(=O)[C@H](CCC(=O)O)NC(=O)C(C)(C)NC(=O)[C@@H](N)Cc2ccc(O)cc2)[C@@H](C)O)[C@@H](C)O)[C@@H](C)CC)CCC1)[C@@H](C)CC)C(C)C)C(=O)N[C@@H](C)C(=O)NCC(=O)NCC(=O)N1CCC[C@H]1C(=O)N[C@@H](CO)C(=O)N[C@@H](CO)C(=O)NCC(=O)N[C@@H](C)C(=O)N1CCC[C@H]1C(=O)N1CCC[C@H]1C(=O)N1CCC[C@H]1C(=O)N[C@@H](CO)C(N)=O [ID NO: 8] | 0.0 ± 0.0 g | 43.8 ± 0.7 g | -1.1 ± 0.2 g | 42.7 ± 0.7 g | 20.36 ± 0.87 mmol/L | 48.1% | 10.56 ± 0.99 mmol/L | 50.9% | 9.99 ± 0.86 mmol/L | 51.7% | 9.83 ± 0.85 mmol/L | 53.1% | 9.54 ± 1.12 mmol/L | 41.3% | 11.95 ± 1.26 mmol/L | 260.46 ± 21.31 mmol·h/L | 49.0% | -0.6 ± 0.1 g | 43.2 ± 0.7 g | 29.6% | Blood glucose at different time after administration, 34 h (ob/ob mice): 14.33 ± 1.43 mmol/L; Decrease rate of blood glucose at different time after administration, 48 h (ob/ob mice): 15.7%
CC[C@H](C)[C@H](NC(=O)[C@H](CO)NC(=O)[C@H](Cc1ccc(O)cc1)NC(=O)[C@H](CC(=O)O)NC(=O)[C@H](CO)NC(=O)[C@@H](NC(=O)[C@H](Cc1ccccc1)NC(=O)[C@@H](NC(=O)CNC(=O)[C@H](CCC(=O)O)NC(=O)[C@H](C)NC(=O)[C@@H](N)Cc1ccc(O)cc1)[C@@H](C)O)[C@@H](C)CC)C(=O)N[C@@H](C)C(=O)N[C@@H](CCSC)C(=O)N[C@@H](CC(=O)O)C(=O)N[C@@H](CCCCN)C(=O)N[C@H](C(=O)N[C@@H](Cc1c[nH]cn1)C(=O)N[C@@H](CCC(N)=O)C(=O)N[C@@H](CCC(N)=O)C(=O)N[C@@H](CC(=O)O)C(=O)N[C@@H](Cc1ccccc1)C(=O)N[C@H](C(=O)N[C@@H](CC(N)=O)C(=O)N[C@@H](Cc1c[nH]c2ccccc12)C(=O)N[C@@H](CC(C)C)C(=O)N[C@@H](CC(C)C)C(=O)N[C@@H](C)C(=O)N[C@@H](CCC(N)=O)C(=O)N[C@@H](CCCCN)C(=O)NCC(=O)N[C@@H](CCCCN)C(=O)N[C@@H](CCCCN)C(=O)N[C@@H](CC(N)=O)C(=O)N[C@@H](CC(=O)O)C(=O)N[C@@H](Cc1c[nH]c2ccccc12)C(=O)N[C@@H](CCCCN)C(=O)N[C@@H](Cc1c[nH]cn1)C(=O)N[C@@H](CC(N)=O)C(=O)N[C@H](C(=O)N[C@H](C(=O)N[C@@H](CCC(N)=O)C(=O)O)[C@@H](C)O)[C@@H](C)CC)C(C)C)[C@@H](C)CC [GIP, Glucose-dependent inotropic peptide, reference compound] | 0.0 ± 0.0 g | 43.5 ± 0.8 g | 0.1 ± 0.1 g | 43.6 ± 0.8 g | 20.36 ± 0.74 mmol/L | 38.0% | 12.63 ± 1.70 mmol/L | 38.8% | 12.46 ± 1.66 mmol/L | 32.7% | 13.71 ± 0.86 mmol/L | 30.5% | 14.16 ± 1.24 mmol/L | 12.4% | 17.84 ± 0.87 mmol/L | 363.99 ± 14.21 mmol·h/L | 28.7% |  |  |  | 
Semaglutide [reference compound] | 0.0 ± 0.0 g | 43.7 ± 1.0 g | -2.9 ± 0.2 g | 40.7 ± 1.0 g | 20.71 ± 1.14 mmol/L | 56.0% | 9.12 ± 0.84 mmol/L | 56.7% | 8.96 ± 1.40 mmol/L | 59.8% | 8.32 ± 0.88 mmol/L | 60.0% | 8.29 ± 0.86 mmol/L | 59.0% | 8.49 ± 1.12 mmol/L | 215.87 ± 18.67 mmol·h/L | 57.7% | -1.9 ± 0.2 g | 41.7 ± 1.0 g | 56.0% | Blood glucose at different time after administration, 34 h (ob/ob mice): 9.12 ± 0.83 mmol/L; Decrease rate of blood glucose at different time after administration, 48 h (ob/ob mice): 13.9%
